This is an account of results in patent US10656162B2, “Use of glu-tubulin as a biomarker of drug response to furazanobenzimidazoles” (Basilea Pharmaceutica AG, priority 2011, dated 2020).

What all share (type): cell-based, human
For assay [1], the system named is A549 BAL27862-resistant cell line variant. The assay is described as follows: Crystal Violet assay, BAL27862-resistant A549 versus parental line. The settings on record: A549, 72 hours, Crystal Violet. An excerpt:
(§1) BAL27862-resistant sublines of human non-small cell lung cancer (H460 ATCC reference HTB-177; A549 ATCC reference CCL-185), ovarian cancer (SKOV3 ATCC reference HTB-77) lines were generated by long-term selection in complete cell culture medium (RPMI-1640 containing 10% FCS; Sigma-Aldrich) by stepwise increasing concentrations of BAL27862. […] The resistant sublines were expanded at the highest tolerated BAL27862 concentration and subsequently frozen and stored in liquid nitrogen.
(§2) After medium was removed, cells were fixed and stained by adding 50 μl Crystal Violet Staining (0.2% Crystal Violet in 50% Methanol) per well. Plates were incubated for 1 hour at room temperature. Subsequently the stain was decanted and plates were washed 4 times with double-distilled water. Plates were air-dried for several hours. Stain was dissolved by adding 100 μl buffer (0.1 M Tris pH 7.5, 0.2% SDS, 20% Ethanol) per well and shaking the plates. Absorbance at 590 nm was measured using a SpectraMax M2e plate reader (Molecular Devices). Anti-proliferative IC50 values were calculated from concentration response curves using GraphPad Prism software. Resistance factors were calculated as a ratio of BAL27862 IC50 in the resistant line variant versus the IC50 in the parental line.

In assay [2] the test system is CXF 243 patient-derived colorectal tumour. The assay can be described thus: Colony outgrowth assay, CXF 243. Also on record: key to Response to compound (BAL27862, paclitaxel, vinblastine): Sensitive: BAL27862-sensitive tumour cells have IC70 values in the low nanomolar range; Resistant: BAL27862-resistant tumour cells are defined by IC70 values >600 nanomolar. As to conditions: CXF 243, colorectal cancer, ex vivo colony outgrowth. The method, then: (§3) Single cell suspensions of patient-derived tumour xenografts (maintained in nude mice) were prepared. For colony outgrowth assays, cells were plated in soft agar in 24-well plates according to the assay introduced by Hamburger & Salmon (Primary bioassay of human tumour stem cells, Science, 1977.197:461-463). 2×10^4-6×10^4 cells in 0.2 mL medium containing 0.4% agar were plated out on a bottom layer of 0.75% agar. Test compounds were applied in 0.2 mL culture medium. Every 24-well plate contained untreated controls and samples in triplicates. Cultures were incubated at 37° C. and 7.5% CO2 for 5-28 days. 24 hours prior to analysis, vital colonies were stained with a solution of metabolisable tetrazolium salt (Alley M C et al, Life Sci. 1982, 31:3071-3078) and were counted with an automatic image analysis system (Omnicon 3600, Biosys GmbH).
(§4) Relative drug effects were expressed by the ratio of the mean number of colonies in the treated wells and the control wells. IC70-values were determined by plotting compound concentrations versus relative colony counts.

For assay [3], the system named is H460 BAL27862-resistant cell line variant. The assay is described as follows: Crystal Violet assay, BAL27862-resistant H460 versus parental line. As to conditions: H460, 72 hours, Crystal Violet.
Description: as §1, §2

The subject of assay [4] is CXF 1103 patient-derived colorectal tumour. The assay can be described thus: Colony outgrowth assay, CXF 1103. As to conditions: CXF 1103, colorectal cancer, ex vivo colony outgrowth. The method, then: as §3, §4
For assay [5], the system named is LXFE 211 Patient-derived lung tumour. The assay is described as follows: Colony outgrowth assay, LXFE 211. Set-up: key to Response to compound (BAL27862, paclitaxel, vinblastine): Sensitive: BAL27862-sensitive tumour cells have IC70 values in the low nanomolar range; Resistant: BAL27862-resistant tumour cells are defined by IC70 values >600 nanomolar. As to conditions: LXFE 211, lung cancer, ex vivo colony outgrowth. The method, then: as §3, §4

For a further assay, the system named is SKOV3 resistant 2. The assay is described as follows: Crystal Violet assay, SKOV3 resistant 2 versus parental line. The settings on record: SKOV3 resistant 2, 72 hours, Crystal Violet.
Description: as §1, §2

The next assay has as its system SKOV3 resistant 1. The assay is described as follows: Crystal Violet assay, SKOV3 resistant 1 versus parental line. The settings on record: SKOV3 resistant 1, 72 hours, Crystal Violet.
Description: as §1, §2

The subject of a further assay is A549 NSCLC cells. The assay can be described thus: Immunofluorescent staining of microtubules, A549. The settings on record: A549, 24 hours; 50 nM BAL27862, 80 nM Compound B, 20 nM Compound C; anti-alpha-tubulin staining. The method, then: A549 human non-small cell lung cancer (NSCLC, ATCC reference number CCL-185) cells, HeLa cervical cancer cells (ATCC reference number CCL-2) and SKBR3 breast carcinoma cells (ATCC reference number HTB-30) were seeded at densities of 50% on round microscope coverslips and cultured for 24 hours in RPMI-1640 containing 10% FCS (also referred to as FBS) at 37° C., 5% CO2. Compounds to be tested were dissolved in DMSO. The cell culture medium was replaced with medium containing the diluted compound(s) (paclitaxel, vinblastine, colchicine and nocodazole were purchased from Sigma-Aldrich) or vehicle. After treatment for the times indicated in the Brief Description of the Figures, coverslips were washed and cells were fixed in methanol/acetone (1:1) for 5 minutes at room temperature and subsequently incubated in blocking buffer (0.5% BSA and 0.1% TX-100 in PBS) for 30 minutes at room temperature. Specimens were then incubated with anti-alpha-tubulin (Sigma, 1:2000) for 1 hour at room temperature in blocking buffer. After several washing steps cells were incubated with AlexaFluor-488 goat-anti-mouse IgG (Molecular Probes, 1:3000) for 1 hour at room temperature followed by several washing steps with blocking buffer. Specimens were then mounted with ProLong Gold antifade (Molecular Probes, sealed with nail polish and examined with a Leica immunofluorescence microscope. Images were captured with a cooled CCD-camera and processed by ImageJ software.

Assay [6] deals with MEXF 1341 patient-derived melanoma. The assay is described as follows: Colony outgrowth assay, MEXF 1341. The settings on record: MEXF 1341, melanoma, ex vivo colony outgrowth. The method, then: as §3, §4
The subject of assay [7] is MEXF 276 patient-derived melanoma. The assay can be described thus: Colony outgrowth assay, MEXF 276. The settings on record: MEXF 276, melanoma, ex vivo colony outgrowth. The method, then:
as §3, §4

Turning to `CC(=O)O[C@H]1C(=O)[C@@]2(C)[C@H]([C@H](OC(=O)c3ccccc3)[C@]3(O)C[C@H](OC(=O)[C@H](O)[C@@H](NC(=O)c4ccccc4)c4ccccc4)C(C)=C1C3(C)C)[C@]1(OC(C)=O)CO[C@@H]1C[C@@H]2O` [Paclitaxel, paclitaxel], the “Resistance factors (ratio of IC50 BAL27862-resistant cell line variant and IC50 parental cell line)” value is given as 0.06 in assay [1], 0.3 in assay [3], 0.5 with SKOV3 resistant 2 and 0.4 in the assay on SKOV3 resistant 1. For the same compound, the “Response to compound (BAL27862, paclitaxel, vinblastine)” value in assay [2], in [4] and in assay [5] was “Resistant (BAL27862-resistant tumour cells are defined by IC70 values >600 nanomolar)” in each case.

As for `Nc1ccc(C(=O)Cn2c(-c3nonc3N)nc3ccccc32)cc1` [Compound B, 2-[2-(4-Amino-furazan-3-yl)-benzoimidazol-1-yl]-1-(4-amino-phenyl)-ethanone], in the assay with A549 NSCLC cells, the “Microtubule phenotype of mitotic or G2/M arrested cells” value was “highly reproducible and distinct microtubule phenotype”.

Consider `CC[C@]1(O)C[C@@H]2CN(CCc3c([nH]c4ccccc34)[C@@](C(=O)OC)(c3cc4c(cc3OC)N(C)[C@H]3[C@@](O)(C(=O)OC)[C@H](OC(C)=O)[C@]5(CC)C=CCN6CC[C@]43[C@@H]65)C2)C1` [Vinblastine, vinblastine, reference compound], for which the “Resistance factors (ratio of IC50 BAL27862-resistant cell line variant and IC50 parental cell line)” value in [1] stood at 2.3; in [3], 4.6; with SKOV3 resistant 1, 15.7. Moreover, the “Response to compound (BAL27862, paclitaxel, vinblastine)” value in [2] is on record as “Sensitive”; in assay [4], “Resistant (BAL27862-resistant tumour cells are defined by IC70 values >600 nanomolar)”; in [5], “Sensitive”; in assay [6], “Sensitive”; in assay [7], “Sensitive”.

Turning to `COc1cc2c(c(OC)c1OC)-c1ccc(OC)c(=O)cc1[C@@H](NC(C)=O)CC2` [Colchicine, colchicine], the “Resistance factors (ratio of IC50 BAL27862-resistant cell line variant and IC50 parental cell line)” value in assay [1] stood at 0.9; in assay [3], 1.6; in the assay on SKOV3 resistant 2, 2.8; with SKOV3 resistant 1, 2.0.

As to `N#CCCNc1nonc1-c1nc2ccccc2n1CC(=O)c1ccc(N)nc1` [Compound C, 3-(4-{1-[2-(6-Amino-pyridin-3-yl)-2-oxo-ethyl]-1H-benzoimidazol-2-yl}-furazan-3-ylamino)-propionitrile], in the assay on A549 NSCLC cells, the “Microtubule phenotype of mitotic or G2/M arrested cells” value is “highly reproducible and distinct microtubule phenotype”.

Take `COC(=O)Nc1nc2ccc(C(=O)c3cccs3)cc2[nH]1` [Nocodazole, nocodazole]: the “Resistance factors (ratio of IC50 BAL27862-resistant cell line variant and IC50 parental cell line)” value is 1.6 in assay [1], 1.3 in [3], 3.9 in the assay with SKOV3 resistant 2 and 3.6 in the assay on SKOV3 resistant 1.
